Reference: US20230382909A1, “BICYCLIC COMPOUNDS” (Aligos Therapeutics, Inc., priority 2022, published 2023)
Structures can show the parent of a compound that is named as a salt.

Assays:
HBV = experiment: HBV-DNA antiviral assay using HepG2.117 cells; format: cell-based, HBV genotype D; settings: Hepatitis B virus, HepG2.117, 72 h
Experimental: (§1) The following assay procedure describes the HBV antiviral assay, using HepG2.117 cells, which carry a stably integrated genotype D HBV genome under the control of a Tet-off promoter, and intracellular HBV DNA quantification as endpoint. Cell viability is assessed in parallel by measuring the intracellular ATP content using CellTiter-Glo 2.0 (Promega).
On day 0, HepG2.117 cells (which are maintained in routine cell culture with doxycycline present in the medium at a final concentration of 1 μg/mL) are seeded in 96-well plates (white with clear bottom) at a density of 2.0×10^4 cells/well (0.1 mL/well) in medium without doxycycline to induce pgRNA transcription and subsequent formation of HBV particles. The cells are incubated at 37° C. and 5% CO2.
(§2) On day 1, medium is removed from each well, the test articles are diluted in culture medium without doxcycyline and 100 μL was added to cell culture wells (9 concentrations, 4-fold dilution). For each plate, 6 untreated (merely DMSO) wells are included. The final concentration of DMSO in the culture medium is 2%. Each plate is prepared in duplicate (one for HBV DNA extraction, one for CellTiter-Glo 2.0 measurement). The cells are incubated at 37° C. and 5% CO2 for 3 days.
(§3) On day 4, cell viability is assessed using CellTiter-Glo 2.0 and cell lysates are prepared for HBV DNA extraction and subsequent quantification by qPCR.
HBV DNA Quantification by qPCR
Medium is removed from each well and 100 μL of 0.33% NP-40 in H2O was added to each well. Plates are sealed, incubated at 4° C. for 5 mins, vortexed extensively and centrifuged briefly. Next, 35 μL of lysate is added to 65 μL QuickExtract DNA Extraction Solution (Epicentre) in a PCR plate for each well. PCR plate is incubated at 65° C. for 6 mins, 98° C. for 2 mins and finally cooled to 4° C. HBV DNA is then quantified by qPCR with HBV-specific primers and probes as specified in Table 3 using the Bio-Rad SSOAdvanced Universal Probes Supermix on a CFX96 machine (Bio-Rad). The PCR cycle program consisted of 95° C. for 3 mins, followed by 40 cycles at 95° C. for 10 sec and 60° C. for 30 sec.
A DNA standard is prepared by dilution of an IDT gBlock corresponding to the amplicon with concentrations ranging from 10^2 to 10^8 copies/input (i.e., per 4 μL) and used to generate a standard curve by plotting Cq values vs. HBV DNA standard concentration. The quantity of HBV DNA in each sample is determined by interpolating from the standard curve.
(§4) Cell viability is calculated as follows: % Cell viability=(luminescence value of test sample)/(average luminescence value of 2% DMSO control)×100%. HBV DNA inhibition was calculated as follows: 100−(HBV DNA copy number of test sample)/(average HBV DNA copy number of 2% DMSO control)×100%. No normalization to entecavir is required due to the excellent dynamic window of this assay. The CC50, EC50 and EC9o values were determined by dose-response curves fitted using non-linear regression.

[1] = Cell viability by CellTiter-Glo 2.0 (intracellular ATP content) in HepG2.117 cells; format: cell-based; settings: human, CellTiter-Glo 2.0, 3 days incubation
Experimental: as §1, §2, §3
Using the other plates, the cell viability is quantified by CellTiter-Glo 2.0 according to the manufacturer's manual. In brief, 100 μL of reagent solution is added to the culture plates and shaken for 2′. The plates are incubated at rt for 10 min and luminescence signal is subsequently measured on a VarioSkan Lux (ThermoFisher) plate reader.
as §4

SMILES	EC50 (HBV)	CC50 at 3 days [1]
Cc1cc(C)n(-c2nc3c(c(=O)n2-c2ccc4c(cnn4C)c2)C[C@@H](C)N(C(=O)c2ccc(Br)c(C(F)(F)F)c2)C3)n1 [Compound 13, (6R)-7-[4-bromo-3-(trifluoromethyl)benzoyl]-2-(3,5-dimethylpyrazol-1-yl)-6-methyl-3-(1-methylindazol-5-yl)-6,8-dihydro-5H-pyrido[3,4-d]pyrimidin-4-one]	< 50 nM	> 500 nM
Cc1cc(C)n(-c2nc3c(c(=O)n2-c2cc(Cl)c4c(c2)ncn4C)C[C@@H](C)N(C(=O)c2ccc(Br)c(C(F)(F)F)c2)C3)n1 [Compound 17, (6R)-7-[4-bromo-3-(trifluoromethyl)benzoyl]-3-(7-chloro-1-methyl-benzimidazol-5-yl)-2-(3,5-dimethylpyrazol-1-yl)-6-methyl-6,8-dihydro-5H-pyrido[3,4-d]pyrimidin-4-one]	< 50 nM	> 500 nM
Cc1cc(C)n(-c2nc3c(c(=O)n2-c2cnc4c(c2)ncn4C)C[C@@H](C)N(C(=O)c2ccc(Br)c(C(F)(F)F)c2)C3)n1 [Compound 19, (6R)-7-[4-bromo-3-(trifluoromethyl)benzoyl]-2-(3,5-dimethylpyrazol-1-yl)-6-methyl-3-(3-methylimidazo[4,5-b]pyridin-6-yl)-6,8-dihydro-5H-pyrido[3,4-d]pyrimidin-4-one]	< 50 nM	> 500 nM
Cc1cc(C)n(-c2nc3c(c(=O)n2-c2ccc(N4CC(O)C4)nc2)C[C@@H](C)N(C(=O)c2ccc(Br)c(C(F)(F)F)c2)C3)n1 [Compound 32, (6R)-7-[4-bromo-3-(trifluoromethyl)benzoyl]-2-(3,5-dimethylpyrazol-1-yl)-3-[6-(3-hydroxyazetidin-1-yl)-3-pyridyl]-6-methyl-6,8-dihydro-5H-pyrido[3,4-d]pyrimidin-4-one]	< 50 nM	> 500 nM
Cc1cc(C)n(-c2nc3c(c(=O)n2-c2ccc(N4CCNCC4)nc2)C[C@@H](C)N(C(=O)c2ccc(Br)c(C(F)(F)F)c2)C3)n1 [Compound 10, (R)-7-(4-bromo-3-(trifluoromethyl)benzoyl)-2-(3,5-dimethyl-1H-pyrazol-1-yl)-6-methyl-3-(6-(piperazin-1-yl)pyridin-3-yl)-5,6,7,8-tetrahydropyrido[3,4-d]pyrimidin-4(3H)-one hydrochloride]	< 50 nM	> 500 nM
Cc1cc(C)n(-c2nc3c(c(=O)n2-c2ccc(N4CC[C@@H](O)C4)nc2)C[C@@H](C)N(C(=O)c2ccc(Br)c(C(F)(F)F)c2)C3)n1 [Compound 9, (R)-7-(4-bromo-3-(trifluoromethyl)benzoyl)-2-(3,5-dimethyl-1H-pyrazol-1-yl)-3-(6-((R)-3-hydroxypyrrolidin-1-yl)pyridin-3-yl)-6-methyl-5,6,7,8-tetrahydropyrido[3,4-d]pyrimidin-4(3H)-one]	< 50 nM	> 500 nM
CNC(=O)c1ccc(-n2c(-n3nc(C)cc3C)nc3c(c2=O)C[C@@H](C)N(C(=O)c2ccc(Br)c(C(F)(F)F)c2)C3)cc1N [Compound 24, 2-amino-4-[(6R)-7-[4-bromo-3-(trifluoromethyl)benzoyl]-2-(3,5-dimethylpyrazol-1-yl)-6-methyl-4-oxo-6,8-dihydro-5H-pyrido[3,4-d]pyrimidin-3-yl]-N-methyl-benzamide]	< 50 nM	> 500 nM
Cc1cc(C)n(-c2nc3c(c(=O)n2-c2ccc(N4CC[C@H](O)C4)nc2)C[C@@H](C)N(C(=O)c2ccc(Br)c(C(F)(F)F)c2)C3)n1 [Compound 33, (6R)-7-[4-bromo-3-(trifluoromethyl)benzoyl]-2-(3,5-dimethylpyrazol-1-yl)-3-[6-[(3S)-3-hydroxypyrrolidin-1-yl]-3-pyridyl]-6-methyl-6,8-dihydro-5H-pyrido[3,4-d]pyrimidin-4-one]	< 50 nM	> 500 nM
Cc1cc(C)n(-c2nc3c(c(=O)n2-c2ccc(-c4cnn(C)c4)cn2)C[C@@H](C)N(C(=O)c2ccc(Br)c(C(F)(F)F)c2)C3)n1 [Compound 16, (6R)-7-[4-bromo-3-(trifluoromethyl)benzoyl]-2-(3,5-dimethylpyrazol-1-yl)-6-methyl-3-[5-(1-methylpyrazol-4-yl)-2-pyridyl]-6,8-dihydro-5H-pyrido[3,4-d]pyrimidin-4-one]	< 50 nM	> 500 nM
CNC(=O)c1ccc(-n2c(-n3nc(C)cc3C)nc3c(c2=O)C[C@@H](C)N(C(=O)c2ccc(Br)c(C(F)(F)F)c2)C3)cc1Cl [Compound 2, (R)-4-(7-(4-bromo-3-(trifluoromethyl)benzoyl)-2-(3,5-dimethyl-1H-pyrazol-1-yl)-6-methyl-4-oxo-5,6,7,8-tetrahydropyrido[3,4-d]pyrimidin-3(4H)-yl)-2-chloro-N-methylbenzamide]	< 50 nM	> 500 nM
Cc1cc(C)n(-c2nc3c(c(=O)n2-c2ccc(OC[C@H](C)O)cc2)C[C@@H](C)N(C(=O)c2ccc(Br)c(C(F)(F)F)c2)C3)n1 [Compound 15, (6R)-7-[4-bromo-3-(trifluoromethyl)benzoyl]-2-(3,5-dimethylpyrazol-1-yl)-3-[4-[(2S)-2-hydroxypropoxy]phenyl]-6-methyl-6,8-dihydro-5H-pyrido[3,4-d]pyrimidin-4-one]	< 50 nM	> 500 nM
Cc1cc(C)n(-c2nc3c(c(=O)n2-c2cc(F)c4ncn(C)c4c2)C[C@@H](C)N(C(=O)c2ccc(Br)c(C(F)(F)F)c2)C3)n1 [Compound 21, (6R)-7-[4-bromo-3-(trifluoromethyl)benzoyl]-2-(3,5-dimethylpyrazol-1-yl)-3-(7-fluoro-3-methyl-benzimidazol-5-yl)-6-methyl-6,8-dihydro-5H-pyrido[3,4-d]pyrimidin-4-one]	< 50 nM	> 500 nM
Cc1cc(C)n(-c2nc3c(c(=O)n2-c2ccc(OCC(N)=O)cc2)C[C@@H](C)N(C(=O)c2ccc(Br)c(C(F)(F)F)c2)C3)n1 [Compound 5, (R)-2-(4-(7-(4-bromo-3-(trifluoromethyl)benzoyl)-2-(3,5-dimethyl-1H-pyrazol-1-yl)-6-methyl-4-oxo-5,6,7,8-tetrahydropyrido[3,4-d]pyrimidin-3(4H)-yl)phenoxy)acetamide]	< 50 nM	> 500 nM
Cc1cc(C)n(-c2nc3c(c(=O)n2-c2cc(C)c4c(c2)ncn4C)C[C@@H](C)N(C(=O)c2ccc(Br)c(C(F)(F)F)c2)C3)n1 [Compound 26, (6R)-7-[4-bromo-3-(trifluoromethyl)benzoyl]-3-(1,7-dimethylbenzimidazol-5-yl)-2-(3,5-dimethylpyrazol-1-yl)-6-methyl-6,8-dihydro-5H-pyrido[3,4-d]pyrimidin-4-one]	< 50 nM	> 500 nM
Cc1cc(C)n(-c2nc3c(c(=O)n2-c2ccc(O[C@H]4C[C@H](O)C4)nc2)C[C@@H](C)N(C(=O)c2ccc(Br)c(C(F)(F)F)c2)C3)n1 [Compound 40, (R)-7-(4-bromo-3-(trifluoromethyl)benzoyl)-2-(3,5-dimethyl-1H-pyrazol-1-yl)-3-(6-((1r,3R)-3-hydroxycyclobutoxy)pyridin-3-yl)-6-methyl-5,6,7,8-tetrahydropyrido[3,4-d]pyrimidin-4(3H)-one]	< 50 nM	> 500 nM
Cc1cc(C)n(-c2nc3c(c(=O)n2-c2cnc4c(ncn4C)n2)C[C@@H](C)N(C(=O)c2ccc(Br)c(C(F)(F)F)c2)C3)n1 [Compound 20, (6R)-7-[4-bromo-3-(trifluoromethyl)benzoyl]-2-(3,5-dimethylpyrazol-1-yl)-6-methyl-3-(1-methylimidazo[4,5-b]pyrazin-5-yl)-6,8-dihydro-5H-pyrido[3,4-d]pyrimidin-4-one]	< 50 nM	> 500 nM
